Several values for one entry are separate records, joined by “and”; a condition that tells them apart may be missing. Equal entries are not always repeated. Structures can show the parent of a compound that is named as a salt.
Experiments:
[1] = Gemcitabine plasma pharmacokinetics in Slc28a1+/+ and Slc28a1-/- mice; conditions: plasma; for half-life: T1/2 (terminal half-life); for Vd: Vss
[2] = Gemcitabine urine pharmacokinetics (renal excretion) in Slc28a1+/+ and Slc28a1-/- mice
Procedure: THU was added to the mouse urine samples upon collection and frozen until analysis. […] Five microliters of the diluted samples were transferred to a 96-well autosampler plate then 10 µL of internal standard mixture was added and mixed. […] The plate was then transferred to the 4 °C autosampler for analysis.
The chromatographic separation was performed on a Thermo Accucore aQ 2.6 µm, 100 ×2.1 mm column at 30 °C using a gradient with a 10 µL injection volume. The mobiles phases were 1 mM ammonium acetate in deionized water pH 6.8 and acetonitrile. The total run time was 5.5 min. […] The LC–MS/MS analysis was conducted on a Thermo Vanquish UHPLC with a TSQ Quantiva mass spectrometer equipped with an electrospray ionization source.

CNT1 = conditions: read-out: Km (affinity for CNT1); cited from earlier work
KPC cells [3] = experiment: Survival of mice with orthotopic syngeneic KPC pancreatic tumors treated with dFdC
KPC cells [4] = experiment: Tumor burden by bioluminescent imaging after orthotopic implantation of KPC-LUC cells; conditions: orthotopic KPC-LUC tumors, Gemcitabine group, Fig. 6C source data
[5] = cited from earlier work
[6] = female, mouse, iv, 50 mg/kg, Slc28a1+/+ mice, single i.v. dFdC 50 mg/kg
[7] = female, mouse, iv, 50 mg/kg, Slc28a1-/- mice, single i.v. dFdC 50 mg/kg

Nc1ccn([C@@H]2O[C@H](CO)[C@@H](O)C2(F)F)c(=O)n1 [dFdC, Gemcitabine hydrochloride, reference compound]
concentration at 10 min ([1]; female, mouse, intravenous, 50 mg/kg, Cp (Gemcitabine), KO mice, single iv gemcitabine 50mg/kg, 10 min): 1.94 µg/mL | concentration at 60 min ([1]; female, mouse, intravenous, 50 mg/kg, Cp (Gemcitabine), KO mice, single iv gemcitabine 50mg/kg, 60 min): 0.0288 µg/mL | AUC(0-inf) ([1]; female, mouse, iv, 50 mg/kg, AUCINF_obs, Gemcitabine in plasma, WT mice, iv gemcitabine 50mg/kg, per mouse): 1120 ng·h/mL | AUC(0-inf) ([1]; female, mouse, iv, 50 mg/kg, AUCINF_pred, Gemcitabine in plasma, WT mice, iv gemcitabine 50mg/kg, per mouse): 1130 ng·h/mL | AUC ([1]; female, mouse, iv, 50 mg/kg, AUCall, Gemcitabine in plasma, WT mice, iv gemcitabine 50mg/kg, per mouse): 1010 ng·h/mL | AUC(0-t) ([1]; female, mouse, iv, 50 mg/kg, AUClast, Gemcitabine in plasma, WT mice, iv gemcitabine 50mg/kg, per mouse): 1010 ng·h/mL | clearance ([1]; female, mouse, iv, 50 mg/kg, CL (systemic clearance), Slc28a1+/+ mice, single i.v. dFdC 50 mg/kg): 607 mL/min/kg | clearance ([1]; female, mouse, iv, 50 mg/kg, CL (systemic clearance), Slc28a1-/- mice, single i.v. dFdC 50 mg/kg): 951 ± 167 mL/min/kg | clearance ([1]; female, mouse, iv, 50 mg/kg, Cl_obs, Gemcitabine in plasma, WT mice, iv gemcitabine 50mg/kg, per mouse): 745 mL/min/kg | Cmax [1, 6]: 3.65 ± 0.408 µg/mL | Cmax [1, 7]: 3.12 ± 0.335 µg/mL | half-life [1, 6]: 13.6 ± 0.67 min | half-life [1, 7]: 11.5 ± 0.81 min | Tmax [1, 6]: ~5 min | Tmax [1, 7]: ~5 min | Vd [1, 6]: 14.4 L/kg | Vd [1, 7]: 14.1 L/kg | Cp (Gemcitabine) ([1]; KO mice, single iv gemcitabine 50mg/kg, 10 min): 2.50577 µg/mL and 1.69901 µg/mL and 1.48777 µg/mL and 1.7432 µg/mL and 1.81705 µg/mL | Cp (Gemcitabine) ([1]; KO mice, single iv gemcitabine 50mg/kg, 60 min): 0.0303338 µg/mL and 0.0295353 µg/mL and 0.0273213 µg/mL and 0.0282215 µg/mL and 0.0275324 µg/mL | Cp (Gemcitabine) ([2]; Figure 5 G, H, I, KO mice, 5 Minutes, individual mice): 667.756 µg/mL and 701.121 µg/mL and 742.057 µg/mL and 708.576 µg/mL and 1006.774 µg/mL | Cp (Gemcitabine) ([2]; Figure 5 G, H, I, KO mice, 10 Minutes, individual mice): 1196.136 µg/mL and 1117.096 µg/mL and 1176.76 µg/mL and 1333.848 µg/mL and 1383.016 µg/mL and 1407.258 µg/mL | Cp (Gemcitabine) ([2]; Figure 5 G, H, I, KO mice, 15 Minutes, individual mice): 1417.457 µg/mL and 1463.209 µg/mL and 1417.045 µg/mL and 1464.236 µg/mL and 1528.485 µg/mL and 1605.582 µg/mL | Cp (Gemcitabine) ([2]; Figure 5 G, H, I, KO mice, 30 Minutes, individual mice): 1020.435 µg/mL and 1043.589 µg/mL and 1004.789 µg/mL and 686.314 µg/mL and 637.597 µg/mL | Cp (Gemcitabine) ([2]; Figure 5 G, H, I, KO mice, 60 Minutes, individual mice): 806.557 µg/mL and 703.249 µg/mL and 814.631 µg/mL and 838.872 µg/mL and 677.262 µg/mL | Cp (Gemcitabine) ([2]; Figure 5 G, H, I, KO mice, 120 Minutes, individual mice): 1007.916 µg/mL and 1001.638 µg/mL and 923.671 µg/mL and 928.827 µg/mL and 1022.245 µg/mL | Cp (Gemcitabine) ([2]; Figure 5 G, H, I, KO mice, 240 Minutes, individual mice): 131.108 µg/mL and 117.705 µg/mL and 128.911 µg/mL and 104.939 µg/mL and 51.416 µg/mL and 148.894 µg/mL | Cp (Gemcitabine) ([2]; Figure 5 G, H, I, WT mice, 5 Minutes, individual mice): 473.332 µg/mL and 486.741 µg/mL and 465.952 µg/mL and 485.933 µg/mL and 493.479 µg/mL | Cp (Gemcitabine) ([2]; Figure 5 G, H, I, WT mice, 10 Minutes, individual mice): 654.272 µg/mL and 654.234 µg/mL and 642.732 µg/mL and 677.281 µg/mL and 755.524 µg/mL | Cp (Gemcitabine) ([2]; Figure 5 G, H, I, WT mice, 15 Minutes, individual mice): 869.257 µg/mL and 882.561 µg/mL and 865.564 µg/mL and 871.549 µg/mL and 735.964 µg/mL | Cp (Gemcitabine) ([2]; Figure 5 G, H, I, WT mice, 30 Minutes, individual mice): 865.074 µg/mL and 694.859 µg/mL and 1051.246 µg/mL and 934.229 µg/mL and 1018.271 µg/mL | Cp (Gemcitabine) ([2]; Figure 5 G, H, I, WT mice, 60 Minutes, individual mice): 691.965 µg/mL and 701.388 µg/mL and 530.199 µg/mL and 662.975 µg/mL and 688.86 µg/mL | Cp (Gemcitabine) ([2]; Figure 5 G, H, I, WT mice, 120 Minutes, individual mice): 410.29 µg/mL and 371.477 µg/mL and 406.197 µg/mL and 640.633 µg/mL and 369.675 µg/mL | Cp (Gemcitabine) ([2]; Figure 5 G, H, I, WT mice, 240 Minutes, individual mice): 394.084 µg/mL and 419.478 µg/mL and 409.47 µg/mL and 387.436 µg/mL and 378.97 µg/mL | Dose in Urine (% of total dose administered) ([2]; Slc28a1+/+ mice, single i.v. dFdC 50 mg/kg): 7.53% | Dose in Urine (% of total dose administered) ([2]; Slc28a1-/- mice, single i.v. dFdC 50 mg/kg): 13.73% | concentration at 5 min ([2]; mouse, urine, intravenous, 50 mg/kg, Cp (Gemcitabine), Figure 5 G, H, I, KO mice, 5 Minutes, individual mice): 690 µg/mL | concentration at 30 min ([2]; mouse, urine, intravenous, 50 mg/kg, Cp (Gemcitabine), Figure 5 G, H, I, KO mice, 30 Minutes, individual mice): 995 µg/mL | concentration at 60 min ([2]; mouse, urine, intravenous, 50 mg/kg, Cp (Gemcitabine), Figure 5 G, H, I, KO mice, 60 Minutes, individual mice): 801 µg/mL | concentration at 120 min ([2]; mouse, urine, intravenous, 50 mg/kg, Cp (Gemcitabine), Figure 5 G, H, I, KO mice, 120 Minutes, individual mice): 977 µg/mL | concentration at 5 min ([2]; mouse, urine, intravenous, 50 mg/kg, Cp (Gemcitabine), Figure 5 G, H, I, WT mice, 5 Minutes, individual mice): 447 µg/mL | concentration at 10 min ([2]; mouse, urine, intravenous, 50 mg/kg, Cp (Gemcitabine), Figure 5 G, H, I, WT mice, 10 Minutes, individual mice): 628 µg/mL | concentration at 15 min ([2]; mouse, urine, intravenous, 50 mg/kg, Cp (Gemcitabine), Figure 5 G, H, I, WT mice, 15 Minutes, individual mice): 859 µg/mL | concentration at 30 min ([2]; mouse, urine, intravenous, 50 mg/kg, Cp (Gemcitabine), Figure 5 G, H, I, WT mice, 30 Minutes, individual mice): 725 µg/mL | concentration at 60 min ([2]; mouse, urine, intravenous, 50 mg/kg, Cp (Gemcitabine), Figure 5 G, H, I, WT mice, 60 Minutes, individual mice): 864 µg/mL | concentration at 120 min ([2]; mouse, urine, intravenous, 50 mg/kg, Cp (Gemcitabine), Figure 5 G, H, I, WT mice, 120 Minutes, individual mice): 403 µg/mL | concentration at 240 min ([2]; mouse, urine, intravenous, 50 mg/kg, Cp (Gemcitabine), Figure 5 G, H, I, WT mice, 240 Minutes, individual mice): 400 µg/mL | renal clearance (CLr) in Slc28a1-/- mice higher than in Slc28a1+/+ mice ([2]; non-compartmentally calculated, single i.v. dFdC 50 mg/kg): 126.63% | Km (CNT1): 12 to 36 µM | Survival, Days (individual mice) (KPC cells [3]; CNT1 (Slc28a1-/-) Gemcitabine (25mg/ml) group, Fig. 6E source data): 27 days and 32 days and 35 days and 39 days | Survival, Days (individual mice) (KPC cells [3]; CNT1 (Slc28a1-/-) Gemcitabine (37mg/ml) group, Fig. 6E source data): 30 days and 43 days and 45 days and 46 days | Survival, Days (individual mice) (KPC cells [3]; CNT1 (Slc28a1-/-) Gemcitabine group, Fig. 6D source data): 26 days and 43 days and 35 days and 23 days and 45 days | Survival event flag (1 = event, 0 = censored), individual mice (KPC cells [3]; CNT1 + Gemcitabine (Slc28a1-/-), Fig. 6D source data): 1 | Survival event flag (1 = event, 0 = censored), individual mice (KPC cells [3]; CNT1 Gemcitabine (25mg/ml), Fig. 6E source data, column headed CNT1 + Vehicle): 1 | Survival event flag (1 = event, 0 = censored), individual mice (KPC cells [3]; CNT1 Gemcitabine (37mg/ml), Fig. 6E source data): 1 | mice remaining healthy at day 45 (KPC cells [3]; Slc28a1+/+ mice, dFdC 25 mg/kg i.v.): approximately 66% | median overall survival (KPC cells [3]; Slc28a1+/+ mice, dFdC 25 mg/kg i.v. twice a week, Fig. 6D): > 50 days | day by which all mice died (KPC cells [3]; Slc28a1-/- mice, dFdC 25 mg/kg i.v.): ≤ 45 days | median overall survival (KPC cells [3]; Slc28a1-/- mice, dFdC 25 mg/kg i.v. twice a week, Fig. 6D): 39 days | median overall survival (KPC cells [3]; Slc28a1-/- mice, dFdC 37 mg/kg i.v. twice a week, Fig. 6E): 42 days | Survival event flag (1 = event, 0 = censored), individual mice (KPC cells [3]; WT + Gemcitabine, Fig. 6D source data): 0 and 1 | Survival, Days (individual mice) (KPC cells [3]; WT Gemcitabine group, Fig. 6D source data, event flag in WT + Gemcitabine): 50 days and 33 days and 45 days | Tumor burden (bioluminescent imaging signal), individual mice (KPC cells [4]; day 7, Slc28a1-/- mice): -32133333333 and 23906666667 and -21903333333 and -24593333333 and -34283333333 and 89006666667 | Tumor burden (bioluminescent imaging signal), individual mice (KPC cells [4]; day 7, wild-type mice): 59739000000 and -37121000000 and -92035000000 and 9139000000 and 52739000000 and 7539000000 | Tumor burden (bioluminescent imaging signal), individual mice (KPC cells [4]; day 14, Slc28a1-/- mice): 144007000000 and 59806666667 and 55206666667 and 122107000000 and 12746666667 and 52806666667 | Tumor burden (bioluminescent imaging signal), individual mice (KPC cells [4]; day 14, wild-type mice): 127000000000 and 202000000000 and 71900000000 and 123000000000 and 33800000000 and -44800000000 | Tumor burden (bioluminescent imaging signal), individual mice (KPC cells [4]; day 21, Slc28a1-/- mice): 903000000000 and 356000000000 and 622000000000 and 1010000000000 and 2710000000000 and 506000000000 | Tumor burden (bioluminescent imaging signal), individual mice (KPC cells [4]; day 21, wild-type mice): 998000000000 and 735000000000 and 252000000000 and 420000000000 and 526000000000 and 763000000000 | Tumor burden (bioluminescent imaging signal), individual mice (KPC cells [4]; day 25, Slc28a1-/- mice): 1770000000000 and 1210000000000 and 722000000000 and 1860000000000 and 1930000000000 and 2060000000000 | Tumor burden (bioluminescent imaging signal), individual mice (KPC cells [4]; day 25, wild-type mice): 1230000000000 and 109000000000 and 355000000000 and 803000000000 and 1440000000000 and 1090000000000 | Log P [5]: −1.5

— PMC10235067, “Increased renal elimination of endogenous and synthetic pyrimidine nucleosides in concentrative nucleoside transporter 1 deficient mice” (Nature Communications, 2023)
